Measured values from US7812022B2 (GlaxoSmithKline LLC, priority 2004, dated 2010).
pIC50: −log10 of the molar value.

What was measured:
[1] = system: BT474 and HN5 tumor cell lines; assay: Celltiter Glo growth inhibition assay (cellular Method B); assay type: cell-based; conditions: Homo sapiens, BT-474, 72 h, 3 days, read-out: Activity (Method): growth inhibition IC50 class
Method: (§1) Human breast tumor cells (BT474) were cultured in RPMI, (Invitrogen, 22400) containing 10% fetal bovine serum (FBS). Human head and neck tumor cells (HN5) were cultured in low glucose DMEM (Invitrogen, 12320) containing 10% FBS. Human colon tumor cells (Colo205) were cultured in DMEM (Invitrogen, 10564) containing 10% FBS. All cell lines were maintained at 37° C. in a humidified 5% CO2, 95% air incubator. Cells were harvested using trypsin/EDTA, counted using a haemocytometer, and plated in 30 microliters of the appropriate media described above, at the following densities, in a half area, black-walled, 96-well tissue culture plate (Corning 3882): BT474 3,000 cells/well, HN5 500 cells/well and Colo205 cells, 3,000 cells/well. The next day, compounds were diluted in DMEM containing […] gentamicin, from 10 mM stock solutions in DMSO. 30 microliters/well of these dilutions were added to the 30 microliters/well of media currently on the cell plates. Medium containing 0.6% DMSO was added to control wells. The final concentration of DMSO in all wells was 0.3%. Cells were incubated at 37° C., 5% CO2 for 3 days. Cell biomass was estimated using Celltiter Glo (Promega G7571). Briefly, plates were removed from the incubator and allowed to equilibrate to rt for 30 minutes. 60 microliters of Celltiter Glo reagent were added to each well of the treated cells and plates were shaken on an orbital plate shaker for 2 min. Plates were incubated without shaking for 30 more min and read in a luminometer with an integration time of 0.5 seconds per well. Percent inhibition of cell growth was calculated relative to vehicle treated control wells. Concentration of compound that inhibits 50% of vehicle control cell growth (IC50) was interpolated using nonlinear regression (Levenberg-Marquardt) and the equation, y=Vmax*(1−(x/(K+x)))+Y2, where “K” was equal to the IC50.

ErbB2 or EGFR = biological target: T1, ErbB2 or EGFR; assay: ErbB family substrate phosphorylation enzyme assay (HTRF), Method A or Method B; assay type: biochemical; conditions: Method B: enzyme mix pre-incubated with compound 1 hour at 20° C., started with substrate mix
T1 construct: enzymes purified from a baculovirus expression system; Reagent production was conducted essentially as described in Brignola, P. S., et al, (2002) J. Biol. Chem. 277(2): 1576-1585
Outline: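 Baculovirus-expressed EGFR or ErbB2 (0.8 or 10 nM in enzyme mix) phosphorylates biotinylated Peptide C with 20 µM ATP and 0.8 µM peptide (substrate-mix levels), MnCl2, pH 7.5. Reaction ran 90 min at 20 °C with EDTA stop and HTRF anti-phosphotyrosine read. Method A: enzyme added last; Method B: 1 h enzyme–compound preincubation.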

Colo205 tumor cell lines = assay: Celltiter Glo growth inhibition assay (cellular Method B), Colo205; assay type: cell-based; conditions: Homo sapiens, COLO 205, 72 h, 3 days, read-out: Activity (Method): growth inhibition IC50 class
Method: as §1

Row | pIC50 [1] | pIC50 (Colo205 tumor cell lines) | Compound | Activity (Method): pIC50 class against ErbB2 or EGFR (ErbB2 or EGFR)
1 | 6.00 to 7.00 | < 6.00 | CN(C)CCOc1cccc(Nc2nccc(-c3c(-c4cccc(NC(=O)c5c(F)cccc5F)c4)nn4cc(C(F)(F)F)ccc34)n2)c1 [Example 194, N-{3-[3-{2-[(3-{[2-(Dimethylamino)ethyl]oxy}phenyl)amino]-4-pyrimidinyl}-6-(trifluoromethyl)pyrazolo[1,5-a]pyridin-2-yl]phenyl}-2,6-difluorobenzamide] | +++ (B) (at least one pIC50 measurement of greater than 7 against either ErbB2 or EGFR)
2 | 6.00 to 7.00 | < 6.00 | O=C(Nc1cccc(-c2nn3ccccc3c2-c2nc(Nc3cccc(F)c3)ncc2F)c1)c1c(F)cccc1F [Example 202, 2,6-difluoro-N-[3-(3-{5-fluoro-2-[(3-fluorophenyl)amino]-4-pyrimidinyl}pyrazolo[1,5-a]pyridin-2-yl)phenyl]benzamide] | ++ (B) (at least one pIC50 measurement greater than 6 against either ErbB2 or EGFR but no measurement greater than pIC50 of 7)
3 | > 7.00 | 6.00 to 7.00 | CN1CCc2ccc(Nc3ncc(F)c(-c4c(-c5cccc(NC(=O)c6c(F)cccc6F)c5)nn5ccccc45)n3)cc2C1 [Example 203, 2,6-Difluoro-N-[3-(3-{5-fluoro-2-[(2-methyl-1,2,3,4-tetrahydro-7-isoquinolinyl)amino]-4-pyrimidinyl}pyrazolo[1,5-a]pyridin-2-yl)phenyl]benzamide] | +++ (B) (at least one pIC50 measurement of greater than 7 against either ErbB2 or EGFR)
